Results on ten compounds are retold here after patent US20140100216A1, “STIMULATORS OF INCRETIN HORMONES SECRETION, METHOD FOR PREPARATION AND USE THEREOF” (priority 2011, published 2014).

In test [1] the target is T1, human TGR5 (hTGR5) receptors (Homo sapiens, UniProt Q8TDU6).
T1 construct: expressed in transfected cells; host or cells: HEK-293
T1 sequence (Q8TDU6 1-330): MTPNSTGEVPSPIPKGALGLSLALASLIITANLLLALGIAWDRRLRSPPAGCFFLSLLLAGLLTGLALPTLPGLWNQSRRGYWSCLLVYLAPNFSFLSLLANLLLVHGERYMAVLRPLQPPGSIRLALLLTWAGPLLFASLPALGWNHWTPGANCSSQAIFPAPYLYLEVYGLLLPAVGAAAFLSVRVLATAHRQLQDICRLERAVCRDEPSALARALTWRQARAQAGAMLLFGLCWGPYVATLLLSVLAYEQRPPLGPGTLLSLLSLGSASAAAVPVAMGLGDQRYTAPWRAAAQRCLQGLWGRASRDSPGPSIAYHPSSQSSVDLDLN
The experiment in a line: Agonistic activity towards TGR5 receptors, increase of intracellular cAMP in HEK-293 cells. The class given is cell-based. The conditions noted are these: HEK-293 cells expressing hTGR5, read-out: Activity (agonistic activity, EC50 class). The protocol:
Screening of compounds of the general formula 1 was carried out in experiments on cells of HEK-293 line, in which human TGR5 (hTGR5) receptors were expressed. Agonistic activity of compounds was estimated by increasing of intracellular cAMP concentration.

Test [2] concerns diabesity mice of db/db line. The experiment in a line: Influence of rectal BA administration on weight change at diabesity. The format is in vivo. Conditions: GDC 5 and 50 mmol gel rectally + Sitagliptin 30 mg/kg peroral, weighed 2 days after administration. The protocol: Influence of rectal administration of glycodeoxycholic acid (GDC) on weight change of mice of db/db line at diabesity was investigated. […] The gel was prepared on the base of methyl cellulose water solution (1%) and Tween-80 (2%). The animals were weighted 2 days before the experiment, at the moment of administration and 2 days after administration of compositions.

Test [3] has as its system diabesity mice of db/db line. The experiment in a line: Influence of rectal administration of bile acid GDC on blood glucose level. The format is in vivo. The conditions noted are these: male db/db mice. The protocol: The influence of rectal administration of glycodeoxycholic acid (GDC) on glucose level in blood was studied at diabesity mice of db/db line. Glucose level at male db/db mice (39.5 g) was measured 24 hs before and at the moment of rectal administration, and then in 1, 2, 3, 4, 5, 6, and 24 hs afterwards. […] The gel was prepared on the base of methyl cellulose water solution (1%) and Tween-80 (2%). GDC BA administration in both doses effectively and statistically valid reduced glucose concentration in plasma of diabesity mice of db/db line (on 24%—at 50 mmol and on 20% at 5 mmol).

Turning to `O=C(NC1CCCC1)C1c2cc(C(F)(F)F)ccc2OCCN1Cc1cccc(-c2ccccc2)c1` (stereo not drawn) [Compound 14, 4-(3-pheylbenzyl)-7-trifluoromethyl-2,3,4,5-tetrahydrobenzo[f][1,4]oxazepine-5-carboxylic acid cyclopentylamide], in test [1], the EC50 was greater than 10 µM.
Same read-out and setting: under `O=C(NC1CCCCC1)C1c2cc(C(F)(F)F)ccc2OCCN1Cc1cccc(-c2ccccc2)c1` (stereo not drawn) [Compound 15, 4-(3-phenylbenzyl)-7-trifluoromethyl-2,3,4,5-tetrahydrobenzo[f][1,4]oxazepine-5-carboxylic acid cyclohexylamide] stands less than 1 µM.
Still for that read-out and setting: under `CC(C)(C)NC(=O)C1c2cc(F)ccc2OCCN1Cc1ccccc1-c1ccncc1` (stereo not drawn) [Compound 18, 4-[2-(pyridin-4-yl)benzyl]-7-fluoro-2,3,4,5-tetrahydrobenzo[f][1,4]oxazepine-5-carboxylic acid tert-butylamide] stands 1 to 10 µM; under `CC(C)(C)NC(=O)C1c2cc(F)ccc2OCCN1Cc1ccccc1-c1ccc(F)cc1` (stereo not drawn) [Compound 50, 4-[2-(4-fluorophenyl)benzyl]-7-fluoro-2,3,4,5-tetrahydrobenzo[f][1,4]oxazepine-5-carboxylic acid tert-butylamide], less than 1 µM.
Same read-out and setting: under `O=C(NC1CCCC1)C1c2cc(C(F)(F)F)ccc2OCC(=O)N1Cc1cccc(-c2ccccc2)c1` (stereo not drawn) [Compound 81, 4-(3-phenylbenzyl)-3-oxo-7-trifluoromethyl-2,3,4,5-tetrahydrobenzo[f][1,4]oxazepine-5-carboxylic acid cyclopentylamide] stands greater than 10 µM.
Turning to `CC(C)(C)NC(=O)C1c2ccccc2OCC(=O)N1Cc1ccccc1-c1ccncc1` (stereo not drawn) [Compound 90, 4-[2-(pyridin-4-yl)benzyl]-3-oxo-2,3,4,5-tetrahydrobenzo[f][1,4]oxazepine-5-carboxylic acid tert-butylamide], the concentration for a half-maximal effect (EC50) in test [1] was greater than 10 µM.
Still for that read-out and setting: under `Cc1ccc(-c2ccccc2CN2C(=O)COc3ccccc3C2C(=O)NC(C)(C)C)cc1` (stereo not drawn) [Compound 96, 4-[2-(4-methylphenyl)benzyl]-3-oxo-2,3,4,5-tetrahydrobenzo[f][1,4]oxazepine-5-carboxylic acid tert-butylamide] stands 1 to 10 µM; under `Cc1cccc(-c2ccccc2CN2C(=O)COc3ccccc3C2C(=O)NC(C)(C)C)c1` (stereo not drawn) [Compound 97, 4-[2-(3-methylphenyl)benzyl]-3-oxo-2,3,4,5-tetrahydrobenzo[f][1,4]oxazepine-5-carboxylic acid tert-butylamide], greater than 10 µM.
As to `CC(CCC(=O)NCC(=O)O)C1CCC2C3CCC4CC(O)CCC4(C)C3CC(O)C12C` (stereo not drawn) [GDC, glycodeoxycholic acid], in test [2], the “weight change of animals” value is “effectively and statistically-valid reduced weights of experimental animals”. For the same compound, the “reduction of glucose concentration in plasma” value in test [3] (GDC 5 mmol gel rectally + Sitagliptin 30 mg/kg perorally 15 min before) came out at 20%; in test [3] (GDC 50 mmol gel rectally + Sitagliptin 30 mg/kg perorally 15 min before), 24%.
For the compound `N[C@@H](CC(=O)N1CCn2c(nnc2C(F)(F)F)C1)Cc1cc(F)c(F)cc1F` [Sitagliptin, reference compound], in test [3] (Sitagliptin alone (vehicle gel + Sitagliptin 30 mg/kg)), the “lowering of glucose level in blood plasma” value is 5-10%.
